# Measurements from patent US12208108B2, “Drug targets of delayed aging and human brain diseases” (Texas Tech University System, priority 2016, dated 2025).
# Tests used:
# Assay type in all cases: in vivo
# BACHD mice [1] = test: Behavioral analysis in BACHD mice; conditions: BACHD mice treated for six months vs untreated BACHD mice
# Description: Huntington's disease. To determine whether Mdivi1 reduces excessive mitochondrial fragmentation and enhances mitochondrial function and synaptic activity in bacterial artificial chromosome transgenic Huntington's disease (BACHD) mice.
# (§1) The inventors treated BACHD mice and non-transgenic wild-type mice with Mdivi-1 for six months. Behavioral analysis were performed using rotarod (motor coordination), open field (locomotor activity), Y-maze (working memory) and tail suspension (neurological phenotype) in both treated and untreated BACHD and non-transgenic wild-type (WT) mice. […] The inventors also completed studies on the cell and molecular biology aspects of mitochondria and mutant huntingtin experiments. And also completed experiments on mitochondrial morphology (number and length) dendritic spine density in Mdivi-1-treated and untreated BACHD and non-transgenic WT mice.
# BACHD mice [2] = test: Gene/protein levels, dendritic spines and mitochondrial morphology in BACHD mice
# Description: as §1
# Mdivi-1-treated BACHD mice had increased dendritic spines in striatal, cortical and hippocampal tissues of Mdivi-1-treated BACHD mice relative Mdivi-1-untreated BACHD mice. Mdivi-1-treated BACHD mice had increased mitochondrial length and reduced the size of mitochondrial size.
# [3] = test system: transgenic Tau (P301L strain) mice; test: Morris Water Maze, transgenic Tau mice; conditions: 12-month-old Tau mice, 3 weeks
# Description: (§2) Impact of MitoQ in Wild-type and Transgenic Tau mice: The inventors investigated the protective effects of MitoQ and daily exercise in 12-month-old transgenic Tau (P301L strain) and age-matched wild-type mice. The purpose of this study was to assess the lifestyle factors (antioxidant-enriched diet) and physical exercise (Treadmill) effects on cognitive behavior and AD pathologies (Abeta, P-tau, mitochondrial and synaptic) in AD mice.
# (§3) First, the inventors fed wild-type, Tau and APP/PS1 mice with (500 uM of MitoQ in drinking water) and physical exercise (30 minutes on Treadmill) for 3 weeks. The inventors used 12-month-old animals (n=7) per group for all treatments (WT-MitoQ, WT-Treadmill, WT-MitoQ+Treadmill), Tau (Tau-MitoQ, Tau-Treadmill,Tau-MitoQ+Treadmill) and APP/PS1 (APP/PS1-MitoQ, APP/PS1-Treadmill, APP/PS1-MitoQ+Treadmill). Age-matched control mice were used for all genotypes in these studies. After 3-weeks treatment, the cognitive behavior using Morris Water Maze test was assessed.
# (§4) The inventors conducted 11 trials (4 training and 7 actual) for latency to find the platform for all groups of mice.
# wild-type mice = test: Morris Water Maze, wild-type mice; conditions: 12-month-old WT mice, 3 weeks, vs control WT mice
# Description: as §2, §3, §4
# [4] = treated vs untreated BACHD mice
SMILES,"behavioral phenotype (rotarod, open field, Y-maze, tail suspension) (BACHD mice [1])","dendritic spines (BACHD mice [2]; striatal, cortical and hippocampal tissues, treated vs untreated BACHD mice)",mitochondrial length (BACHD mice [2]; treated BACHD mice),size of mitochondrial size (BACHD mice [2]; treated BACHD mice),"Mitochondrial biogenesis (PGC1a, Nrf1, Nrf2 and TFAM) genes (BACHD mice [2]; [4])","autophagy (LC3A, LC3B, ATG5, Beclin 1) genes (BACHD mice [2]; [4])",mRNA and protein levels of fission genes (Drp1 and Fis1) (BACHD mice [2]; [4]),"mitochondrial fusion genes (Mfn1, Mfn2, and Opa1) (BACHD mice [2]; [4])","mitophagy (PINK1, TERT, BCL2, BNIP3L) genes (BACHD mice [2]; [4])","synaptic (synaptophysin, PSD95, DARPP32) genes (BACHD mice [2]; [4])","latency to reach platform ([3]; 500 uM in drinking water, vs MitoQ untreated Tau mice)","latency to reach platform ([3]; MitoQ+Treadmill, vs MitoQ+Treadmill untreated Tau mice)",latency to find the platform (wild-type mice; 500 uM in drinking water),latency to find the platform (wild-type mice; MitoQ+Treadmill (30 minutes))
"COc1cc(-n2c(S)nc3ccccc3c2=O)c(Cl)cc1Cl [Mdivi-1, 3-(2,4-Dichloro-5-methoxyphenyl)-2,3-dihydro-2-thioxo-4(1H)-quinazolinone, 3-(2,4-Dichloro-5-methoxyphenyl)-2-sulfanyl-4(3H)-quinazolinone]",significantly improved,increased,increased,reduced,increased,increased,significantly reduced,significantly increased,increased,increased,,,,
"COC1=C(OC)C(=O)C(CCCCCCCCCC[P+](c2ccccc2)(c2ccccc2)c2ccccc2)=C(C)C1=O [MitoQ, Phosphonium, [10-(4,5-dimethoxy-2-methyl-3,6-dioxo-1,4-cyclohexadien-1-yl)decyl]triphenyl-, methanesulfonate]",,,,,,,,,,,much quicker,significantly faster,did not show any significant difference,significantly faster
